The source of these data is US9284291B2, “Kappa opioid receptor compounds” (MediSynergies, LLC, priority 2014, dated 2016).

Assay type in all cases: binding
Assay [1] concerns the target Kappa opioid receptor (Homo sapiens, UniProt P41145). Description: Opioid receptor affinity, NIMH PDSP screen, Kappa subtype. On the procedure: (§1) The compound of Example 7 was tested for activity vs. opioid receptor subtypes, at an initial concentration of 10 μM, through the NIMH Psychoactive Drug Screening Program (PDSP), operated by Dr. Bryan Roth and his colleagues in the Department of Pharmacology at the University of North Carolina (Chapel Hill, N.C.) through an agreement with the National Institute of Mental Health (NIMH).

In assay [2] the target is Mu opioid receptor (Homo sapiens, UniProt P35372). Description: Opioid receptor affinity, NIMH PDSP screen, Mu subtype. Here is the method: as §1
The target in assay [3] is Delta opioid receptor (Homo sapiens, UniProt P41143). Description: Opioid receptor affinity, NIMH PDSP screen, Delta subtype. On the procedure:
as §1

Chain of Kappa opioid receptor (P41145 whole entry): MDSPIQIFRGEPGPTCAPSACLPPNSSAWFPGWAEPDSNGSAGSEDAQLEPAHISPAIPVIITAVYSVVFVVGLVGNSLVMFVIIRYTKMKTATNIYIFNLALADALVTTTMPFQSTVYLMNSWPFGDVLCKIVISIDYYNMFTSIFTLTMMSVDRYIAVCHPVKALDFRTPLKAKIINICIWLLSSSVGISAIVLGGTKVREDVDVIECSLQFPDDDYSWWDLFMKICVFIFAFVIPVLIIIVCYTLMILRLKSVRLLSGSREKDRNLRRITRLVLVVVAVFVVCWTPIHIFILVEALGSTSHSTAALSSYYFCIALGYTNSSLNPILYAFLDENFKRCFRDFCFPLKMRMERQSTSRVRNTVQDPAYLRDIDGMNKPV
Chain of Delta opioid receptor (P41143 whole entry): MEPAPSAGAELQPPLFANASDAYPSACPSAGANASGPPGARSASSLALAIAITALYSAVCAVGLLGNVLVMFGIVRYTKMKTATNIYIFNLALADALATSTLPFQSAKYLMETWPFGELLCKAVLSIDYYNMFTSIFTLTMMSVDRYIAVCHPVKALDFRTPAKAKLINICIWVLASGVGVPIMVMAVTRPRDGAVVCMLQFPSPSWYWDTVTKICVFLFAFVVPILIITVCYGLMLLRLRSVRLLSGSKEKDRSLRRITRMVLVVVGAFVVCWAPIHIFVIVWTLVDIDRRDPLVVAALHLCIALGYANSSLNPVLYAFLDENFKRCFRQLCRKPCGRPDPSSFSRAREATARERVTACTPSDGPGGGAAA
Chain of Mu opioid receptor (P35372 whole entry, species assumed): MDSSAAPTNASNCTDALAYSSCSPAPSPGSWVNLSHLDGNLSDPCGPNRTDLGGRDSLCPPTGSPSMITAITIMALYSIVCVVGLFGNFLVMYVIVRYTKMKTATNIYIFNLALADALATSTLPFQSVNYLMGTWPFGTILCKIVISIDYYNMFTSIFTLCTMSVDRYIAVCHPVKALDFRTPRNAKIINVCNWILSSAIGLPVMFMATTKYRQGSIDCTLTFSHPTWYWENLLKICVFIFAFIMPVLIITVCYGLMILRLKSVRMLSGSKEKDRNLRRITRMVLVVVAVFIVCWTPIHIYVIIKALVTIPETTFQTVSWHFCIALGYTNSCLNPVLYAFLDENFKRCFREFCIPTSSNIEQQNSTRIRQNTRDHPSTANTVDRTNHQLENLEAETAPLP

On to `CN(C)CCCC1(c2ccc(F)cc2)OCc2cc(-c3ncc[nH]3)ccc21` (stereo not shown) [Example 7], for which, in assay [1], the affinity corresponds to a Ki of 0.047 µM. In addition, the inhibition (as a rule, the relative decrease from the control value, in per cent) at 10 µM stood at 100% in assay [1] (10 μM), 39.1% in assay [2] and 23.5% in assay [3].
